Where “and” joins values, the source holds several entries; their conditions need not be identical. Identical values can stand only once.
Key:
[1] = system: T-lymphoblastic leukemia cell line CEM; assay: Calcein AM cytotoxicity, CEM; format: cell-based, human
How it was run: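 Cells in DMEM with 10% FCS, pre-incubated 24 h, then exposed to six 4-fold compound dilutions in duplicate for 72 h at 37 °C, 5% CO2. Viability read by Calcein AM fluorescence after 1 h further incubation.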

Human lymphocytes = assay: Immunosuppressive activity, 3H-thymidine incorporation in concanavalin A activated lymphocytes; format: cell-based; settings: Lymphocyte, 72 hours, [3H]-TdR, read-out: Human lymphocytes ED50
From the text: One of the most important parameters of specific cellular immunity is proliferative response of lymphocytes to antigens or polyclonal mitogens. The majority of normal mammalian peripheral lymphocytes comprise resting cells. Antigens or nonspecific polyclonal mitogens have the capacity to activate lymphoid cells and this is accompanied by dramatic changes of intracellular metabolism (mitochondrial activity, protein synthesis, nucleic acids synthesis, formation of blastic cells and cellular proliferation). […] Variety of in vitro assays was developed to measure proliferative response of lymphocytes. The most commonly used is ^3H-thymidine incorporation method.
During cell proliferation, DNA has to be replicated before the cell is divided into two daughter cells. This close association between cell doublings and DNA synthesis is very attractive for assessing cell proliferation. If labelled DNA precursors are added to the cell culture, cells that are about to divide incorporate the labelled nucleotide into their DNA. Traditionally, those assays usually involve the use of radiolabelled nucleosides, particularly tritiated thymidine ([^3H]-TdR). The amount of [^3H]-TdR incorporated into the cellular DNA is quantified by liquid scintillation counting.
Human heparinized peripheral blood was obtained from healthy volunteers by cubital vein punction. The blood was diluted in PBS (1:3) and mononuclear cells were separated by centrifugation in Ficoll-Hypaque density gradient (Pharmacia, 1.077 g/ml) at 2200 rpm for 30 minutes. Following centrifugation, lymphocytes were washed in PBS and resuspended in cell culture medium (RMPI 1640, 2 mM glutamine, 100 U/ml penicillin, 100 μg/ml streptomycin, 10% fetal calf serum and sodium bicarbonate).
The cells were diluted at target density of 1,100,000 cells/ml were added by pipette (180 μl) into 96/well microtiter plates. Four-fold dilutions of the intended test concentration were added at time zero in 20 μl aliquots to the microtiter plate wells. Usually, test compound was evaluated at six 4-fold dilutions. In routine testing, the highest well concentration was 266.7 μM. All drug concentrations were examined in duplicates. All wells with exception of unstimulated controls were activated with 50 μl of concanavalin A (25 μg/ml). Incubations of cells with test compounds lasted for 72 hours at 37° C., in 5% CO2 atmosphere and 100% humidity. At the end of incubation period, the cells were assayed by using the [^3H]-TdR:
Cell cultures were incubated with 0.5 μCi (20 μl of stock solution 500 μCi/ml) per well for 6 hours at 37° C. and 5% CO2. The automated cell harvester was used to lyse cells in water and adsorb the DNA onto glass-fiber filters in the format of microtiter plate. The DNA incorporated [^3H]-TdR was retained on the filter while unincorporated material passes through. The filters were dried at room temperature overnight, sealed into a sample bag with 10-12 ml of scintillant. The amount of [^3H]-TdR present in each filter (in cpm) was determined by scintillation counting in a Betaplate liquid scintillation counter. The effective dose of immunosuppressant (ED) was calculated using the following equation: ED=(CCPMdrug exposed well/mean CCPMcontrol wells)×100%. The ED50 value, the drug concentration inhibiting proliferation of 50% of lymphocytes, was calculated from the obtained dose response curves.

[2] = system: Rosa hybrida (pot rose cultivar) explants; assay: In vitro and post vitro shoot multiplication and rooting of rose; format: in vivo; settings: for Root number per plant / Total root length per plant: Ex vitro, four weeks of acclimatising; for Flower number per explant / Number of new shoots per explant / Root number per explant / Total root length per explant: In vitro, 10 μM, 8 weeks
Experimental: The aim of this experiment was to test whether the new compounds are of practical use in tissue culture practice. The multiplication rate was investigated and the post vitro effects on rooting were examined. Rosa hybrida (pot rose cultivar) was cultured in 350 ml vessels with a screw on polycarbonate lid. Each culture vessel contained 100 ml autoclaved medium (120° C., 20 min). The cultures were maintained at 23±2° C. under a 16 h photoperiod at 40 μM m^−2 s^−1 PAR. The basal medium (BMR) contained Murashige and Skoog (1962) macroelements, microelements and vitamins, 95 μM NaFeEDTA, 555 μM myo-inositol, 111 mM sucrose, 1.332 mM glycine, 684 μM L-glutamine and 7 g/l agar. This medium was supplemented with 10 μM BA, mT, oMeOBAP or mMeOBAP (compound no. 14 and 15, respectively). The control medium didn't contain any cytokinin. After a culture period of 8 weeks, the number of induced shoots per explant was determined, as well as root number/explant and total root length/explant. The roots were removed and the explants (shoot clusters) were planted in unfertilised peat. After four weeks of acclimatising in a fog unit, root number and root length was determined.

proteasome = assay: Proteasomal chymotrypsin-like activity in cell extracts of treated cells; format: cell-based, human; settings: 40, 80 and 200 μM
Experimental: Chymotrypsin-like activity in cell extracts prepared from treated and untreated cells was determined by in vitro degradation of oligopeptides by the proteasome.

human skin fibroblasts = assay: Cell survival, MTT assay; format: cell-based; settings: 3 days
Experimental: Cell survival after exposure to various doses was measured with the 3-(4,5 dimethylthiazol-2-yl)-2,5-diphenyltetrazolium bromide (MTT) assay. About 5,000 cells were seeded per well in a 96-well plate 24 h before the experiment. Cells were then treated with various doses of the compound to be tested. The wells were washed in Hank's and new medium was added. After three days, MTT (Sigma, M2128) was added at 0.5 mg/ml in medium. After 4 h, MTT was removed and isopropanol and HCl were added to dissolve the MTT crystals for 12-16 h. The absorbance at 595 nm was measured.

## Fc1ccccc1CNc1ncnc2nc[nH]c12 [6-(2-fluorobenzylamino)purine]
[1]; 72 hours, listed as 2F BAP
  IC50: 136 µM and 98.9 µM
Human lymphocytes
  EC50: 2.5 µM

## Cc1ccccc1CNc1ncnc2nc[nH]c12 [6-(2-methylbenzylamino)purine]
[1]; Homo sapiens, 72 h
  IC50: > 167 µM

## Fc1cccc(CNc2ncnc3nc[nH]c23)c1 [6-(3-fluorobenzylamino)purine]
Human lymphocytes
  EC50: 18.2 µM

## Ic1cccc(CNc2ncnc3nc[nH]c23)c1 [6-(3-iodobenzylamino)purine]
[1]; Homo sapiens, 72 h
  IC50: 125 µM

## COc1cccc(CNc2ncnc3nc[nH]c23)c1 [6-(3-methoxybenzylamino)purine]
[2]
  Root number per plant: 1.7
  Total root length per plant: 4.1 cm
  Flower number per explant: 0.03
  Number of new shoots per explant: 4.3
  Root number per explant: 0.0
  Total root length per explant: 0.0 cm

## Cc1ccc(CNc2ncnc3nc[nH]c23)cc1 [6-(4-methylbenzylamino)purine]
[1]; Homo sapiens, 72 h
  IC50: 72.1 µM

## Oc1cccc(CNc2ncnc3nc[nH]c23)c1 [meta-topolin, 6-(3-hydroxybenzylamino)purine]
[2]
  Root number per plant: 1.4
  Total root length per plant: 3.8 cm
  Flower number per explant: 0.16
  Number of new shoots per explant: 2.1
  Root number per explant: 0.0
  Total root length per explant: 0.0 cm
proteasome
  proteasomal activity (chymotrypsin-like), removal of oxidized and abnormal proteins: failed to show such an effect
Human lymphocytes
  EC50: 5.6 µM
Human skin fibroblasts
  cells that did survive treatment: 60%
Human skin fibroblasts; between 0.01 and 1 μM
  cells killed: about 40%

## Oc1ccccc1CNc1ncnc2nc[nH]c12 [ortho-topolin, 6-(2-hydroxybenzylamino)purine]
proteasome
  proteasomal activity (chymotrypsin-like), removal of oxidized and abnormal proteins: failed to show such an effect
Human skin fibroblasts; 200-500 μM
  reduction in cell survival: 10-20%
Human skin fibroblasts; range 0.01-500 μM
  dose until which not cytotoxic / no toxic effect on survival (MTT): 100 µM
